“Also recorded” adds a separate entry of the source.
Tests used:
WT strain BY4741 = assay: cisplatin/NSC combination treatments, fraction of colony forming cells; assay type: cell-based, yeast; settings: 2 hours at 30° C. in water
Method: This enhancement of cisplatin sensitivity by NSC109268 was quantified. We also tested the chemically related compound NSC 109272. Cells of a logarithmic-phase culture of WT strain BY4741 were incubated for 2 hours at 30° C. in water containing the combinations of NSC109268 or NSC109272 and cisplatin shown in Table 2. The fraction of colony forming cells was determined on solid YPD medium.

[1] = tested on: cisplatin resistant ovarian cancer cells (2008/IC3); assay: MTS cell survival, cisplatin plus NSC109268; assay type: cell-based, human
Method: (§1) Based on the cisplatin result in yeast, the inventors explored if a similar effect can be detected in human cells. […] Survival was determined in the presence or absence of compound NSC109268 using Cell Titer 96 Aqueous Cell Proliferation Assay kit from Promega, Madison, Wis. All cultures, unless specified otherwise, were maintained in growth medium composed of RPMI with 2 mM L-glutamine, 100 units/ml of Penicillin, and 100 μg/ml Streptomycin, supplemented with 10% fetal bovine serum under a humidified atmosphere of 95% air, 5% CO2 at 37° C. Briefly, cells were plated in 96-well tissue culture plates at 5-8×10^3 cells/well and allowed to attach overnight in growth medium. The following day, cells were rinsed twice in DMEM and further incubated in serum-free medium for 24 h. Cells were then treated with cisplatin [0-100 μM] in the presence of NSC109268 [0, 1, 2, 3 μM] for 48 h. Dose-response studies were initially done to determine appropriate dosages for the drugs and their vehicles. Negative controls involved the use of DMF, vehicle for cisplatin (˜0 μM) or DMSO, vehicle for NSC109268 (˜0 μM). […] MTS is taken up by live cells where it is reduced by the dehydrogenase enzymes and released back into the culture medium as a yellow formazan product. The amount of formazan product measured in terms of absorbances is directly proportional to the number of live cells in the cultures. Thus, absorbance readings at 490 nm were taken after 1 h and converted to cell numbers based on standard curves. Standard curves were done using cells maintained in RPMI in 96-well plates at the same time. Experiments were done in triplicate wells at least 4 times. Statistical analyses were done using ANOVA. […] Several series of studies were conducted using DMF (solvent control=0) and various concentrations of cisplatin in combination with (DMSO (solvent control=0), 1 μM NSC1092682 μM NSC109268, and 3 μM NSC109268. Survival was plotted in a logarithmic scale against cisplatin dose, with different symbols indicating the amount of added NSC109268 (see FIG. 1A insert), for the RWPE-1 normal prostate cell line (FIG. 1A), PC3 prostate cancer cells (FIG. 1B), cisplatin-sensitive ovarian cancer cells (2008) (FIG. 1C) and cisplatin-resistant ovarian cancer cells (2008/IC3) (FIG. 1D).

[2] = tested on: checkpoint activation (DNA-damage-induced interaction between two selected checkpoint proteins); assay: two-hybrid assay-based yeast screen for agents that modify cell cycle checkpoint activation; settings: in response to the topoisomerase I inhibitor camptothecin
Method: A two-hybrid assay-based yeast system was used to screen small-molecule compound libraries for agents that modify cell cycle checkpoint activation. Checkpoint activation is measured as the DNA-damaged-induced increased interaction between two selected checkpoint proteins.

[3] = tested on: double-strand break repair deficient derivative (rad51) yeast; assay: sensitivity towards DNA damaging agents, survival of macrocolony forming cells, rad51; assay type: cell-based; parameters: key: +: increased resistance; −: decreased resistance; settings: strain rad51
Method: (§2) As another example, the drug streptonigrin was used as a double-strand break inducing drug. After treatment of logarithmically growing yeast cultures for 1 h at 30° C. in YPD medium (1% yeast extract, 2% peptone, 2% dextrose), lethality was measured by inability of colony formation on YPD agar plates. […] The used concentration of 50-100 μg/ml results in 80% survival after 1 h incubation.
(§3) In summary, the incubation of logarithmic phase cells of wild-type yeast and a double-strand break repair deficient derivative (rad51) (Amberg, D. C., D. J. Burke, and J. N. Strathern. 2005. Methods in Yeast Genetics: A Cold Spring Harbor Laboratory Course Manual, 2005 Edition. Cold Spring Harbor Laboratory Press, Cold Spring Harbor, N.Y.) with compound NSC109268 had the following effects on sensitivity towards DNA damaging agents, measured as survival of macrocolony forming cells (+increased resistance, −decreased resistance, ND not determined): Table 1 summarizes the effects of NSC109268 on senstivity towards DNA Damaging Agents in repair-proficient wild type and rad 51^− cells.

wild-type yeast = assay: sensitivity towards DNA damaging agents, survival of macrocolony forming cells, wild type; assay type: cell-based; parameters: key: +: increased resistance; −: decreased resistance; settings: strain WT
Method: as §2, §3

[4] = tested on: cisplatin sensitive ovarian cancer cells (2008); assay: MTS cell survival, cisplatin plus NSC109268; assay type: cell-based, human; settings: cisplatin 0-100 μM, NSC109268 0-3 μM, 48 h
Method: Based on the cisplatin result in yeast, the inventors explored if a similar effect can be detected in human cells. […] Survival was determined in the presence or absence of compound NSC109268 using Cell Titer 96 Aqueous Cell Proliferation Assay kit from Promega, Madison, Wis. All cultures, unless specified otherwise, were maintained in growth medium composed of RPMI with 2 mM L-glutamine, 100 units/ml of Penicillin, and 100 μg/ml Streptomycin, supplemented with 10% fetal bovine serum under a humidified atmosphere of 95% air, 5% CO2 at 37° C.
Briefly, cells were plated in 96-well tissue culture plates at 5-8×10^3 cells/well and allowed to attach overnight in growth medium. The following day, cells were rinsed twice in DMEM and further incubated in serum-free medium for 24 h. Cells were then treated with cisplatin [0-100 μM] in the presence of NSC109268 [0, 1, 2, 3 μM] for 48 h. […]
To determine the number of surviving cells, cells were incubated in 333 μg/ml MTS [3-(4,5-dimethylthiazol-2-yl)-5-(3-carboxymethoxyphenyl)-2-(4-sulfophenyl)-2H-tetrazolium], a tetrazolium salt, and 25 μM phenazine methosulfate (PMS), an electron coupling reagent. […] The amount of formazan product measured in terms of absorbances is directly proportional to the number of live cells in the cultures. Thus, absorbance readings at 490 nm were taken after 1 h and converted to cell numbers based on standard curves. […]

yeast cultures [5] = assay: lethality of logarithmically growing yeast cultures, colony formation on YPD agar; assay type: cell-based
Method: as §2
Curiously, the opposite effect was found for other agents such hydrogen peroxide (H2O2), an oxidative agent causing base damage and strand breaks.

yeast cultures [6] = assay: as above; assay type: cell-based; remark: listed apart in the source
[7] = tested on: PC3 prostate adenocarcinoma cells; assay: MTS cell survival, cisplatin plus NSC109268; assay type: cell-based, human
Method: as §1

[8] = cisplatin 0-100 μM, NSC109268 0-3 μM, 48 h
[9] = compared to cisplatin-sensitive cells (2008)

## N.N.[Cl][Pt][Cl] [Cisplatin, cis-Diammineplatinum (II) dichloride, reference compound]
WT strain BY4741; 33 μM Cisplatin alone
  cell survival (fraction of colony forming cells): 71%
WT strain BY4741; 82.5 μM Cisplatin alone
  cell survival (fraction of colony forming cells): 44.5%
WT strain BY4741; 165 μM Cisplatin alone
  cell survival (fraction of colony forming cells): 21%
[1]; 5 μM of cisplatin without any added NSC109268, 48 h
  survival: 85%

## Copper, di-μ-chlorobis[1-[(1-piperidinyl-κN)methyl]-2-naphthalenolato-κO]di-(9CI) [NSC109268]
[2]
  effect on checkpoint activation: interfere with checkpoint activation
[3]; Cisplatin
  effect on sensitivity towards DNA damaging agent: −
[3]; Ionizing radiation (137Cs)
  effect on sensitivity towards DNA damaging agent: +
[3]; Phleomycin
  effect on sensitivity towards DNA damaging agent: +
wild-type yeast; Cisplatin
  effect on sensitivity towards DNA damaging agent: −
wild-type yeast; MNNG
  effect on sensitivity towards DNA damaging agent: +
wild-type yeast; Streptonigrin
  effect on sensitivity towards DNA damaging agent: +
[4]
  effect of combination with cisplatin on survival: synergistically enhanced
Yeast cultures [5]; compound itself, 50-100 μg/ml, 1 h incubation
  survival: 80%
Yeast cultures [5]; hydrogen peroxide (H2O2), simultaneous exposure
  effect on sensitivity to DNA damaging agent: sensitivity is enhanced
Yeast cultures [5]; streptonigrin, 1 h at 30° C. in YPD medium
  effect on lethality of DNA damaging agent: protective effect
Yeast cultures [5]; yeast, 1 h at 30° C. in YPD medium
  toxicity of the compound itself: moderate toxicity
Yeast cultures [6]; alkylating agent (MMS)
  effect on sensitivity to DNA damaging agent: does not seem to affect sensitivity
Yeast cultures [6]; ionizing radiation (137Cs γ-radiation)
  effect on lethality of DNA damaging agent: less significantly
Yeast cultures [6]; phleomycin
  effect on sensitivity to DNA damaging agent: does not seem to affect sensitivity
Yeast cultures [6]; ultraviolet radiation (UV-C)
  effect on sensitivity to DNA damaging agent: does not seem to affect sensitivity
WT strain BY4741; NSC109268 7.4 nM + 33 μM Cisplatin
  cell survival (fraction of colony forming cells): 29%
WT strain BY4741; NSC109268 7.4 nM + 82.5 μM Cisplatin
  cell survival (fraction of colony forming cells): 25.5%
WT strain BY4741; NSC109268 7.4 nM + 165 μM Cisplatin
  cell survival (fraction of colony forming cells): 0.09%
WT strain BY4741; NSC109268 7.4 nM, 0 μM Cisplatin
  cell survival (fraction of colony forming cells): 79.5%
WT strain BY4741; NSC109268 37 nM + 165 μM Cisplatin
  cell survival (fraction of colony forming cells): <0.4%
WT strain BY4741; NSC109268 37 nM, 0 μM Cisplatin
  cell survival (fraction of colony forming cells): 10%
[7]; [8]
  effect of combination with cisplatin on survival: synergistically enhanced; also recorded: increases cellular sensitivity to cisplatin
[7]; range of concentrations that increases sensitivity to cisplatin
  toxicity of NSC109268 alone: (virtually) non-toxic
[1]; 2 μM NSC109268 without any cisplatin, 48 h
  survival: 38%
[1]; 5 μM cisplatin/2 μM combination treatment, 48 h
  measured survival: 4.5%
[1]; 5 μM cisplatin/2 μM combination treatment, 85% of 38%
  survival expected if the effects were independent: 32%
[1]; [8]
  effect of combination with cisplatin on survival: synergistically enhanced
[1]; [9]
  enhancement effect on cisplatin: much more pronounced
  toxicity without added cisplatin: much more toxic

## Copper, di-μ-chlorobis[1-[(4-morpholinyl-κN4)methyl]-2-naphthalenolato-κO]di-(9CI) [NSC109272]
WT strain BY4741; NSC109272 1.5 nM + 165 μM Cisplatin
  cell survival (fraction of colony forming cells): 4%
WT strain BY4741; NSC109272 1.5 nM, 0 μM Cisplatin
  cell survival (fraction of colony forming cells): 70%
